From patent US20120100609A1, “N-LINKED GLYCAN BIOSYNTHESIS MODULATORS” (priority 2009, published 2012)

Tested on: N-linked glycans of CHO cells
Assay: N-glycan profiling of treated CHO cells by normal phase HPLC (PNGaseF release, 2AB label)
Assay type: cell-based, Chinese Hamster
Details: CHO cells treated with compound, doses in uM
Experimental: N-linked glycans were purified from CHO cell cultures and different N-linked glycan structural peaks were separated by normal phase HPLC. For the analyses, cultured CHO cells were treated with and without the test compounds as described above and then harvested for N-glycan profiling. The spent medium was decanted and the cells were rinsed 3 times with PBS and detached with 5 mM EDTA/PBS. N-glycans were released from cells using PNGaseF (Prozyme, Cat# GKE-5006) as described by the manufacture. Released glycans were labeled with […] (2AB) (Sigma, Cat# A89804) as described by the manufacture. Non-incorporated 2AB was removed using a Discovery DPA-6S column. Briefly, the column was pre-equilibrated 2× with 1 ml 97% ACN. Samples were loaded by adding 1 ml 97% acetonitrile (ACN) to the reaction mix. The column was washed 4× with 1 ml 97% CAN. 2AB-labeled N-glycans were then eluted 2× with 0.6 ml water, dried in a vacuum centrifuge, resuspended and then analyzed by normal phase HPLC(NP-HPLC). Analogous experiments were run with Castanospermine for comparison. The results are illustrated in FIGS. 23-30. Purified 2AB-N-glycans were separated (NP-HPLC) on a 4.6×250 mm TSK Gel-Amide-80 column (Tosoh Bioscience). A gradient was run from 70% A to 50% A over 40 min at a flow rate of 1.2 ml/min (Solvent A: Acetonitrile, Solvent B: 50 mM ammonium formate pH4.4). Glucose units were determined based on 2AB-labeled glucose oligomer ladder (Prozyme). 2AB-labeled N-glycan standards (Prozyme) were run and assigned glucose units.

| Compound | specific N-linked glycan peaks of the HPLC profile (peak areas as % of the untreated Cntr peak area) |
| --- | --- |
| O[C@H]1[C@H](O)[C@@H](O)CN2CC[C@H](O)[C@H]12 [Castanospermine, reference compound] | N-glycan Profile Changes |
| Cc1ccc(NC(=O)c2c(NC(=O)c3cccnc3)sc3c2CCC3)cc1 [compound 10, N-(3-(p-tolylcarbamoyl)-5,6-dihydro-4H-cyclopenta[b]thiophen-2-yl)nicotinamide] | increases and decreases of specific peaks |
| COc1ccc(CN/C=C2\C(=O)N(c3nc4ccccc4s3)N=C2c2ccccc2)cc1 [compound 11] | increases and decreases of specific peaks |
| CCOc1cc(/C=C(\C#N)c2n[nH]c(N)c2C#N)ccc1O [compound 12, (Z)-5-amino-3-(1-cyano-2-(3-ethoxy-4-hydroxyphenyl)vinyl)-1H-pyrazole-4-carbonitrile] | increases and decreases of specific peaks |
